This is an account of results in article PMC3942692, “Mitochondrial FAD-linked Glycerol-3-phosphate Dehydrogenase: A Target for Cancer Therapeutics” (Pharmaceuticals, 2014).

This test deals with T1, GPD2 (mitochondrial glycerol-3-phosphate dehydrogenase) (Homo sapiens, UniProt P43304).
T1 construct: aa 43-727 (mitochondrial transit peptide removed), N-terminal Strep-tag II, expressed in E. coli GJ1158, Strep-Tactin purified; cDNA from PC-3 cells; EC 1.1.5.3
T1 sequence (P43304 43-727): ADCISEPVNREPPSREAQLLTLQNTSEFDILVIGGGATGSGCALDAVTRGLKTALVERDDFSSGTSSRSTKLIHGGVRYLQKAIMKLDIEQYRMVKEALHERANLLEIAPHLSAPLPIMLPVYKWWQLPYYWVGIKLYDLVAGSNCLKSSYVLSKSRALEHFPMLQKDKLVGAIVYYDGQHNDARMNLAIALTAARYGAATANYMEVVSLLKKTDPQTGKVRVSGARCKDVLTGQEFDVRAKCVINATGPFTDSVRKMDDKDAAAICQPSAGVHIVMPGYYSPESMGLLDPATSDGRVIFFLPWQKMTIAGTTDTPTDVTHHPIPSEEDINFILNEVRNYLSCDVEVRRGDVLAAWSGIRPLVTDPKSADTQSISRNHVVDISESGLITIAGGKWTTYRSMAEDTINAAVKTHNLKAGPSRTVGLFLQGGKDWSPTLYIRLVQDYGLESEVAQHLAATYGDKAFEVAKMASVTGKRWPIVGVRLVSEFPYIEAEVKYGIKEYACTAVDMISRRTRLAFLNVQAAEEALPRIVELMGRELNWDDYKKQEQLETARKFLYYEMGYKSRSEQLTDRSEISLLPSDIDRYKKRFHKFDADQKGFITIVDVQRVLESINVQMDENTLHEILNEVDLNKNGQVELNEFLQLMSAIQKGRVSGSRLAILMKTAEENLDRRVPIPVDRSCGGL
In words: GPD2 oxidoreductase, resazurin reduction fluorescence. The format is biochemical. The settings on record: 30 mM glycerol-3-phosphate. An excerpt: GPD2 oxidoreductase, resazurin reduction fluorescence on GPD2 (mitochondrial glycerol-3-phosphate dehydrogenase) | six GPD2 activity inhibitors selected for follow-up analysis are shown

In turn, `CCOC(=O)c1ccc(-n2sccc2=O)cc1` [KM04416] registered an EC50 of 1.23 ± 0.54 µM.
Next, RH02211: 28 ± 13.9 µM.
